The target in the assay is IMPDH II enzyme (Homo sapiens, UniProt P12268). Put plainly: assay against the IMPDH II enzyme. The assay is classed as biochemical. The source says: The present invention enables an efficient and effective production of 1,2,4-triazole-3,5-diamine and/or 1,3,5-triazine-2,4-diamine derivatives, which are useful as pharmaceutical agents and/or as components of pharmaceutical agents, particularly inhibitors of IMPDH, anti-hypertensive agents, and neurokinin receptor antagonists, from readily-available starting compounds. This process provides a convenient synthesis of the target compound from a substituted isothiocyanate, hydrogencyanamide salt, a substituted hydrazine and/or a substituted amidine in moderate to good yield. […] Additionally, tri-nitrogen containing heteroaryl-diamine derivatives of formula (I), 1,2,4-triazole-3,5-diamines of formula (A) and/or (B) and 1,3,5-triazine-2,4-diamines of formula (C) may be readily coupled to a pharmacological core component to provide pharmaceutically active agents, such as, for examples, the compounds described in WO 00/25780, Dunstan et al., Tetrahedron Lett., Vol. 39, (1998), at pp. 7983-7986, U.S. Pat. No. 6,436,928, U.S. patent application No. 20020038030, U.S. Pat. No. 6,172,077 B1, U.S. Pat. No. 5,232,938, U.S. Pat. No. 4,569,933, WO 01/74806A1, WO 01/56987 A1, and EP 1107962 A1, incorporated herein by reference.

These results are taken from patent publication US20040077878A1, “Process for the preparation of tri-nitrogen containing heteroaryl-diamine derivatives useful as pharmaceutical agents and methods of producing pharmaceutical agents” (priority 2002, published 2004).

Structures are written as SMILES.

For the molecule `COc1cc(Nc2nc(N)n(-c3ccccc3)n2)ccc1-c1cnco1` [Example 13], the IC50 worked out at 0.15 µM.
